Reference: publication PMC12281424, “A Rac-specific competitive inhibitor of guanine nucleotide binding reduces metastasis in triple-negative breast cancer” (Cell Reports Medicine, 2025)

Assays:
[1] = biological target: Nicotinic Acetylcholine α1, Bungarotoxin (Homo sapiens, UniProt P02708+P07510+Q07001); assay: Safety screen; assay type: binding
CLK2(h) = CLK2(h) (Homo sapiens, UniProt P49760); assay: Kinase Profiler; assay type: biochemical
Method: (§2) The kinase profiler was performed by the company Eurofins (Discovery, Panlab and Cerep).

MSSK1(h) = MSSK1(h) (Homo sapiens, UniProt Q9UPE1); assay: Kinase Profiler; assay type: biochemical
Method: (§3) Blood cell counts, kinase profiler, safety screen, bacterial cytotoxicity, Ames, micronucleus assays were performed by the company Eurofins (France). The kinase profiler was performed by the company Eurofins (Discovery, Panlab and Cerep).

BTK(R28H)(h) = BTK(R28H)(h) (Homo sapiens, UniProt Q06187, R28H); assay: Kinase Profiler; assay type: biochemical
Chain of BTK(R28H)(h) (Q06187 whole entry R28H): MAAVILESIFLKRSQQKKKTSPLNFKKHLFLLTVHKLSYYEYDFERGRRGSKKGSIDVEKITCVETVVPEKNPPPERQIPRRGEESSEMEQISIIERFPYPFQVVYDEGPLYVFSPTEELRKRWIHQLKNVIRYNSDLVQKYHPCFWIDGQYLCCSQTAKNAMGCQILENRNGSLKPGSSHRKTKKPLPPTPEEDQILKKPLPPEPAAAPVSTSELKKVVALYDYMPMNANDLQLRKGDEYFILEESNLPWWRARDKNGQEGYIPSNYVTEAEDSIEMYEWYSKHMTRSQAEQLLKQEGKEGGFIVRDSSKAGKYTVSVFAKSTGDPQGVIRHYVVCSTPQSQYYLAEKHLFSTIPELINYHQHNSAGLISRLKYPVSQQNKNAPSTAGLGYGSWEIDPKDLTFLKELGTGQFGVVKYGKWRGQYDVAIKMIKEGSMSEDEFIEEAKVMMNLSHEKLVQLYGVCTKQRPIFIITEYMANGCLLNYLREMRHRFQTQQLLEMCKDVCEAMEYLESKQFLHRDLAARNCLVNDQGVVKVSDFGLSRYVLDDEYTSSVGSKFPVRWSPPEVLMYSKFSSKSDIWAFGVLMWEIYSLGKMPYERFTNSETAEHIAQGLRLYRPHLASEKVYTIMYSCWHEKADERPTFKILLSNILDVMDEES
Method: as §3

PKG1β(h) = PKG1β(h) (Homo sapiens, UniProt Q13976); assay: Kinase Profiler; assay type: biochemical
Method: as §2

Phosphodiesterase PDE3 = assay: Safety screen; assay type: biochemical, human
Method: (§4) Blood cell counts, kinase profiler, safety screen, bacterial cytotoxicity, Ames, micronucleus assays were performed by the company Eurofins (France).

MDA-MB-468 Luc cells = assay: Focus formation (clonogenic) assay; assay type: cell-based
Method: (§1) Figure 5 A41 decreases growth and invasiveness of TNBC cells in vitro (A) Representative images of RAC-GTP levels (red) in MDA-MB-468 Luc cells in the absence (CTL) and presence of EHT1864, NSC23766, or A41 (1 h at 10 μM) (left). Luciferase (Luc, green) was used to detect the cells. RAC-GTP mean fluorescence intensity was quantified inside the cell area (right) (n = 31–37 cells from 3 independent experiments; ∗p < 0.05, ∗∗∗p < 0.001) (scale bars: 10 μm). […] (C) Quantification of colony number of indicated cancer cell lines in the presence of A41 (10 μM) expressed as the percentage of control in the absence of A41. Results shown are representative of N > 3 independent experiments. (D) Immunoblot analysis and corresponding quantification of AKT and P44/42 expression and phosphorylation (pAKT, p44/42) in MDA-MB-468 Luc cells in the absence (−) and presence of NSC23766 or A41 (1 h at 10^−5 M). Results shown are representative of 3 independent experiments. ∗∗p < 0.01 vs. untreated cells, ^###p < 0.001 vs. NSC23766-treated cells. (E) 3D invasion assay of MDA-MB-468 Luc and cancer-associated fibroblasts (CAFs) and corresponding quantification (scale bars: 200 μm). […]
1000 cells/well from the indicated cancer cell lines were seeded in 6-wells plates and allowed to grow 2 days before treatments. […] The area occupied by the cells was then quantified with ImageJ software.

Rsk1(h) = Rsk1(h) (Homo sapiens, UniProt Q15418); assay: Kinase Profiler; assay type: biochemical
Method: as §2

PI3K e (p110a/p65a)(h) = PI3K e (p110a/p65a)(h) (Homo sapiens, UniProt P42336); assay: Kinase Profiler; assay type: biochemical
Chain of PI3K e (p110a/p65a)(h) (P42336 whole entry): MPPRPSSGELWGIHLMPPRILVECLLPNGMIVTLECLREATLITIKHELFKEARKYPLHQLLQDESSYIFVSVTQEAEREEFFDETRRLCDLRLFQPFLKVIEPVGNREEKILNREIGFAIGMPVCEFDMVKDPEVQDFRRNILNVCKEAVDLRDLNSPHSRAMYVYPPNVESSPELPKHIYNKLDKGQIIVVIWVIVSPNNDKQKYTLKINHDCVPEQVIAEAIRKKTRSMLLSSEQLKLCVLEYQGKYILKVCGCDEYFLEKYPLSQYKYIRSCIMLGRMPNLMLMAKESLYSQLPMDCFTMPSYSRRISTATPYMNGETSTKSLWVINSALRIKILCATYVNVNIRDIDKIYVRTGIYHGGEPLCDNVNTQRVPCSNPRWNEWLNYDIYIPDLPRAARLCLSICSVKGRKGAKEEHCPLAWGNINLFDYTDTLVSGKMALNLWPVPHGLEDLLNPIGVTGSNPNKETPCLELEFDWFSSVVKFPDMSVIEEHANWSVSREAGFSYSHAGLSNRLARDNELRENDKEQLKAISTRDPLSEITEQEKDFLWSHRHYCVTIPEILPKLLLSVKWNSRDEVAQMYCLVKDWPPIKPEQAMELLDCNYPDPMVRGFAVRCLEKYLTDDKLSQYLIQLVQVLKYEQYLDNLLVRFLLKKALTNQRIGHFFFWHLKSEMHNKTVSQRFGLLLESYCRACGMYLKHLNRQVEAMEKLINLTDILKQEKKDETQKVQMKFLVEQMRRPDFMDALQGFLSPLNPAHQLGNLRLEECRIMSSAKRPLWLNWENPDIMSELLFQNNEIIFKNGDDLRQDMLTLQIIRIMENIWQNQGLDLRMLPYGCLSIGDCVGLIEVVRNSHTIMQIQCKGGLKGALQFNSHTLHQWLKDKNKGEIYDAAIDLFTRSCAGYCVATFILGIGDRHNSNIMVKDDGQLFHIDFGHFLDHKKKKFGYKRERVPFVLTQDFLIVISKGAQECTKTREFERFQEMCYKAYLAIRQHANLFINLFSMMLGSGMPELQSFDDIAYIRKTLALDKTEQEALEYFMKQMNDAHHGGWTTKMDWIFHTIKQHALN
Chain of PI3K e (p110a/p65a)(h) (P27986 1-571 partner limits assumed): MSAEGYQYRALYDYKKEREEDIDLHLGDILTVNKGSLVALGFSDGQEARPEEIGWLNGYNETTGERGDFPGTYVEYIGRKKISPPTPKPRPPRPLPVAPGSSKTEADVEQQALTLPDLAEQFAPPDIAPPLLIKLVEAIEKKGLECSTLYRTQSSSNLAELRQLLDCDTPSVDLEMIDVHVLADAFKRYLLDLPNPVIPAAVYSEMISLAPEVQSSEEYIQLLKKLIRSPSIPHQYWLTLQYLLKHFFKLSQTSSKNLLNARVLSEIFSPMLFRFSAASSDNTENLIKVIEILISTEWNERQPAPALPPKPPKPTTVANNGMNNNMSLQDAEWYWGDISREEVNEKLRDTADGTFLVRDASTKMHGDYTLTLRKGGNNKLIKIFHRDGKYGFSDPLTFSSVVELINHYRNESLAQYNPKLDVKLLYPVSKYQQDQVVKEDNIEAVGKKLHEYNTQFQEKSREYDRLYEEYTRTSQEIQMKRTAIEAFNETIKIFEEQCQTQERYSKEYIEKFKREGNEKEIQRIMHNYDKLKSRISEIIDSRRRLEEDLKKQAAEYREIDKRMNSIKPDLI
Method: as §2

Rsk1(r) = Rsk1(r) (Rattus norvegicus, UniProt Q63531); assay: Kinase Profiler; assay type: biochemical
Chain of Rsk1(r) (Q63531 whole entry): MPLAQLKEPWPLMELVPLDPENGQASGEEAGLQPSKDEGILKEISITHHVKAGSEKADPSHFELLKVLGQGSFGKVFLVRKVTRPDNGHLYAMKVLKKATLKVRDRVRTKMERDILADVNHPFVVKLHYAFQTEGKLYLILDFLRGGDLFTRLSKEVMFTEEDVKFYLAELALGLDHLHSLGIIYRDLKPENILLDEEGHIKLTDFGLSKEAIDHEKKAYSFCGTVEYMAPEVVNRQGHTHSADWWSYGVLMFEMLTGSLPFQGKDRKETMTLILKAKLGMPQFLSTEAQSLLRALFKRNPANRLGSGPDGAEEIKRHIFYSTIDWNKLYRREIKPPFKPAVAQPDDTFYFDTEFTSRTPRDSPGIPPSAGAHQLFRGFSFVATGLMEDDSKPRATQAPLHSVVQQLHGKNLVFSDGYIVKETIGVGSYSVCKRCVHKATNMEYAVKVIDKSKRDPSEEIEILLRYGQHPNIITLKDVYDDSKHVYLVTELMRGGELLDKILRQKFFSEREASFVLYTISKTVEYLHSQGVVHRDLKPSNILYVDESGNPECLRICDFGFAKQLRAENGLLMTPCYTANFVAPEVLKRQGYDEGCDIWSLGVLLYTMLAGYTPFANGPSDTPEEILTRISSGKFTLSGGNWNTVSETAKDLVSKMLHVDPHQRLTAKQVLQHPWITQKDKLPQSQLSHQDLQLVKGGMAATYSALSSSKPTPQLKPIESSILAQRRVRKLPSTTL
Method: as §2

Muscarinic M2 = Muscarinic M2 (Homo sapiens, UniProt P08172); assay: Safety screen; assay type: binding
Chain of Muscarinic M2 (P08172 whole entry): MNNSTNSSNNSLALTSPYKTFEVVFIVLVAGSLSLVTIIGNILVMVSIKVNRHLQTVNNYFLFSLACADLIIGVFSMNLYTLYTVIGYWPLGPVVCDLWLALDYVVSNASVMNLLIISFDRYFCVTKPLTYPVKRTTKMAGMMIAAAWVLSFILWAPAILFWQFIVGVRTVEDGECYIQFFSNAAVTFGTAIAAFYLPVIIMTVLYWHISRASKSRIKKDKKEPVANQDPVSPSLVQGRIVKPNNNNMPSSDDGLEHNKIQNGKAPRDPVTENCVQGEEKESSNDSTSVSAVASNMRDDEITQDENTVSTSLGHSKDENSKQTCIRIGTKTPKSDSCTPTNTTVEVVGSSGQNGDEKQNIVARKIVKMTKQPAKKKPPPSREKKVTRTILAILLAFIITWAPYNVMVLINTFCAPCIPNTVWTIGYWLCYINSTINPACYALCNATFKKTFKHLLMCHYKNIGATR
Method: as §4

GRK7(h) = GRK7(h) (Homo sapiens, UniProt Q8WTQ7); assay: Kinase Profiler; assay type: biochemical
Method: as §3

MAP4K5(h) = MAP4K5(h) (Homo sapiens, UniProt Q9Y4K4); assay: Kinase Profiler; assay type: biochemical
Method: as §2

MARK3(h) = MARK3(h) (Homo sapiens, UniProt P27448); assay: Kinase Profiler; assay type: biochemical
Method: as §2

MDA-MB-468 spheroids = assay: 3D invasion assay; assay type: cell-based; conditions: 10^-5 M
Method: as §1, with “Results shown are representative of 3 independent experiments. ∗∗p < 0.01 vs. untreated cells, ^###p < 0.001 vs. NSC23766-treated cells.” left out
3D-spheroids were obtained, according the protocol previously described,[62] by re-suspending cells at a concentration of 1.25 × 10^4 cells/ml in 20% Methyl-cellulose/80% DMEM 10% FBS. […] Invasion was monitored by fully automated Dmi6000b Wide Field Fluorescence Microscope (Leica Microsystems, Wetzlar, Germany) during 48h.

MAPKAP-K3(h) = MAPKAP-K3(h) (Homo sapiens, UniProt Q16644); assay: Kinase Profiler; assay type: biochemical
Method: as §2

NEK4(h) = NEK4(h) (Homo sapiens, UniProt P51957); assay: Kinase Profiler; assay type: biochemical
Method: as §2

Progesterone PR-B = Progesterone PR-B (Homo sapiens, UniProt P06401); assay: Safety screen; assay type: binding
Chain of Progesterone PR-B (P06401 whole entry): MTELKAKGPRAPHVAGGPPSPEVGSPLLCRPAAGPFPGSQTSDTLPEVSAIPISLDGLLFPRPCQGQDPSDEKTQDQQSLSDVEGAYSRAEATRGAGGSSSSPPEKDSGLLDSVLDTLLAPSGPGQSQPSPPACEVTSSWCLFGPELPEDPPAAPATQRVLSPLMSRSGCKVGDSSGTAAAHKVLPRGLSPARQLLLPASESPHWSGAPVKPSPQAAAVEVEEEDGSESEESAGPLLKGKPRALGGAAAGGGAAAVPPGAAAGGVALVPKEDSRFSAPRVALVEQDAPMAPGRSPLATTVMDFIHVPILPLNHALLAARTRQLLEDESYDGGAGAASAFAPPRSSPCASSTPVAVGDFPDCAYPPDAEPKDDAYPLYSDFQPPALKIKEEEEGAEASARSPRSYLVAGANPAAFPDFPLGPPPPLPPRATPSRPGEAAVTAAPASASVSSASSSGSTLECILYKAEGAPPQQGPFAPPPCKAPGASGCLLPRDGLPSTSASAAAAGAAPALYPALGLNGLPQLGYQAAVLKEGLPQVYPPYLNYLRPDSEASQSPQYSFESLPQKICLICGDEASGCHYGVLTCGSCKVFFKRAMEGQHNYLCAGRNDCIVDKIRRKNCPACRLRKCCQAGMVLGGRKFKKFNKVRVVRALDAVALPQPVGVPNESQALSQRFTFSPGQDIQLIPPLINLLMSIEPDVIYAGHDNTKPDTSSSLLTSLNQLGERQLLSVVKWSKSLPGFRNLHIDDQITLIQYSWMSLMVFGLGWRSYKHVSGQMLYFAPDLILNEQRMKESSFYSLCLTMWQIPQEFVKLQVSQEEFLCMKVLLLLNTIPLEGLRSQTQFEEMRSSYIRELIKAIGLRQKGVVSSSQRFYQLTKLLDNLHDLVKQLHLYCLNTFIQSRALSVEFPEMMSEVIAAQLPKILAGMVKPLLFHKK
Method: as §3

Chain of CLK2(h) (P49760 whole entry): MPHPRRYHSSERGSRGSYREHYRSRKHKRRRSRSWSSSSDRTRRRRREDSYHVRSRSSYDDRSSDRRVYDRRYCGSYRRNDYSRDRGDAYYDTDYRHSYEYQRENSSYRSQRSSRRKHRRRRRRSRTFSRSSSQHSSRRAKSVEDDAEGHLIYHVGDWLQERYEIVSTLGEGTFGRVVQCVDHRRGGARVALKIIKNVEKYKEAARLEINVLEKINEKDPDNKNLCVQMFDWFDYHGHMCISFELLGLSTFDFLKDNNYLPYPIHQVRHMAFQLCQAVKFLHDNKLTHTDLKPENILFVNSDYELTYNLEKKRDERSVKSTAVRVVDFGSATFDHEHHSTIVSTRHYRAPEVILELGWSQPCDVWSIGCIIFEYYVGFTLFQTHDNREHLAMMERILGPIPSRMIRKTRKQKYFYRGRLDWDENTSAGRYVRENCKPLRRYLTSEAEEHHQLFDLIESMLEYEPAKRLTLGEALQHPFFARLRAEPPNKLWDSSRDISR

COc1ccc(OC)c(NS(=O)(=O)c2ccc(NC(=O)CCSc3ccc(C)cc3)cc2)c1 [Compound A41]
% inh. [1]: 0% | Activity(%) (CLK2(h)): 97% | Activity(%) (MSSK1(h)): 125% | Activity(%) (BTK(R28H)(h)): 102% | Activity(%) (PKG1β(h)): 105% | % inh. (Phosphodiesterase PDE3): 9% | IC50 (MDA-MB-468 Luc cells; dose-response curve, Figure 5B, read-out: IC50, colony formation): 2100 nM | colony formation (MDA-MB-468 Luc cells; increasing concentrations): significantly inhibited colony formation in a dose-dependent manner | Activity(%) (Rsk1(h)): 122% | Activity(%) (PI3K e (p110a/p65a)(h)): 102% | Activity(%) (Rsk1(r)): 128% | % inh. (Muscarinic M2): 12% | Activity(%) (GRK7(h)): 100% | Activity(%) (MAP4K5(h)): 102% | Activity(%) (MARK3(h)): 98% | size of the spheroids (MDA-MB-468 spheroids): not affected | migration area of spheroids (MDA-MB-468 spheroids; 3D collagen gel): reduced the migration area | Activity(%) (MAPKAP-K3(h)): 112% | Activity(%) (NEK4(h)): 108% | % inh. (Progesterone PR-B): -16%
